Data as given in the OligoGym collection.
Where “and” joins values, the source holds several entries; their conditions need not be identical. Equal entries are not always repeated. After the bases stand the sugars from the 5' end (letter, count) and the backbone: PS all phosphorothioate, else s phosphorothioate and o phosphodiester by linkage. Methylation of C is not given here. e = 2'-O-(2-methoxyethyl) (MOE); k = constrained ethyl (cEt); d = 2'-deoxy (DNA)

Key:
SOD1 = conditions: ASO
APOL1 = conditions: ASO

Sequence | target mRNA inhibition (APOL1; A431, 0.0625 µM) | target mRNA inhibition (APOL1; A431, 0.25 µM) | target mRNA inhibition (APOL1; A431, 1 µM) | target mRNA inhibition (APOL1; A431, 2 µM) | other results
AGGTCATTGAAACAGAC (sugars e2 k2 d9 k2 e2, PS) | – | – | – | – | target mRNA inhibition (SOD1; HepG2, 5 µM): 44%
AATGGTCTCCTGAGAGTGAG (sugars e5 d10 e5, PS) | – | – | – | – | target mRNA inhibition (SOD1; HepG2, 5 µM): 22%
CCATCTGTGATTTAAGT (sugars e2 k2 d8 k2 e3, PS) | – | – | – | – | target mRNA inhibition (SOD1; HepG2, 5 µM): 46%
GTGTTTAATGTTTATC (sugars kekeddddddddekek, linkages s1 o3 s8 o1 s2) | – | – | – | – | target mRNA inhibition (SOD1; A431, 0.12 µM): 7%; target mRNA inhibition (SOD1; A431, 0.6 µM): 35%; target mRNA inhibition (SOD1; A431, 3 µM): 66%; target mRNA inhibition (SOD1; A431, 15 µM): 78%; target mRNA inhibition (SOD1; HepG2, 0.222 µM): 53%; target mRNA inhibition (SOD1; HepG2, 0.667 µM): 78%; target mRNA inhibition (SOD1; HepG2, 2 µM): 82%; target mRNA inhibition (SOD1; HepG2, 6 µM): 90%
TTTAATACCCATCTGTG (sugars e3 k2 d7 k2 e3, PS) | – | – | – | – | target mRNA inhibition (SOD1; HepG2, 3 µM): 0%
CCAAGGGAATGTTTATT (sugars e2 k2 d9 k2 e2, PS) | – | – | – | – | target mRNA inhibition (SOD1; HepG2, 4 µM): 52%
CCCACTCTGGCCCCAAA (sugars e3 k2 d7 k2 e3, PS) | – | – | – | – | target mRNA inhibition (SOD1; HepG2, 3 µM): 15%
ATGTTTATCAGGATACA (sugars e3 k1 d8 k1 e4, linkages s1 o2 s9 o2 s2) | – | – | – | – | target mRNA inhibition (SOD1; A431, 0.062 µM): 7%; target mRNA inhibition (SOD1; A431, 0.185 µM): 18%; target mRNA inhibition (SOD1; A431, 0.556 µM): 38%; target mRNA inhibition (SOD1; A431, 1.667 µM): 53%; target mRNA inhibition (SOD1; A431, 5 µM): 68%; target mRNA inhibition (SOD1; A431, 15 µM): 79%; target mRNA inhibition (SOD1; SH-SY5Y, 0.062 µM): 4%; target mRNA inhibition (SOD1; SH-SY5Y, 0.185 µM): 30%; target mRNA inhibition (SOD1; SH-SY5Y, 0.556 µM): 51%; target mRNA inhibition (SOD1; SH-SY5Y, 1.667 µM): 68%; target mRNA inhibition (SOD1; SH-SY5Y, 5 µM): 88%; target mRNA inhibition (SOD1; SH-SY5Y, 15 µM): 92%
CTCAGACTACATCCAAG (sugars e2 k2 d9 k2 e2, PS) | – | – | – | – | target mRNA inhibition (SOD1; HepG2, 0.1875 µM): 0%; target mRNA inhibition (SOD1; HepG2, 0.75 µM): 40%; target mRNA inhibition (SOD1; HepG2, 3 µM): 78%; target mRNA inhibition (SOD1; HepG2, 4 µM): 76%; target mRNA inhibition (SOD1; HepG2, 12 µM): 92%
CTTCACTGGTCCATTAC (sugars e3 k2 d7 k2 e3, PS) | – | – | – | – | target mRNA inhibition (SOD1; HepG2, 3 µM): 11%
CTCGCTAGGCCACGCCGAGG (sugars e5 d10 e5, PS) | – | – | – | – | target mRNA inhibition (SOD1; HepG2, 4 µM): 46%
TCCATGCAGGCCTTCAG (sugars e3 k2 d7 k2 e3, PS) | – | – | – | – | target mRNA inhibition (SOD1; HepG2, 3 µM): 18%
GTCGCCCTTCAGCACGC (sugars e3 k2 d7 k2 e3, PS) | – | – | – | – | target mRNA inhibition (SOD1; HepG2, 3 µM): 28%
GGATAACAGATGAGTTA (sugars e2 k2 d8 k2 e3, PS) | – | – | – | – | target mRNA inhibition (SOD1; HepG2, 4 µM): 63%
ATAACAGATGAGTTAAG (sugars e2 k2 d9 k2 e2, PS) | – | – | – | – | target mRNA inhibition (SOD1; HepG2, 4 µM): 42%
ATACATTTCTACAGCT (sugars ekddddddddekekee, linkages s1 o1 s8 o3 s2) | – | – | – | – | target mRNA inhibition (SOD1; A431, 0.12 µM): 0%; target mRNA inhibition (SOD1; A431, 0.6 µM): 9%; target mRNA inhibition (SOD1; A431, 3 µM): 0%; target mRNA inhibition (SOD1; A431, 15 µM): 25%; target mRNA inhibition (SOD1; HepG2, 0.222 µM): 43%; target mRNA inhibition (SOD1; HepG2, 0.667 µM): 58%; target mRNA inhibition (SOD1; HepG2, 2 µM): 79%; target mRNA inhibition (SOD1; HepG2, 6 µM): 91%
GTGTTTAATGTTTATCAGGA (sugars e5 d10 e5, PS) | – | – | – | – | target mRNA inhibition (SOD1; HepG2, 0.1875 µM): 18%; target mRNA inhibition (SOD1; HepG2, 0.75 µM): 45%; target mRNA inhibition (SOD1; HepG2, 3 µM): 74%; target mRNA inhibition (SOD1; HepG2, 5 µM): 73%; target mRNA inhibition (SOD1; HepG2, 12 µM): 92%
CCGTCGCCCTTCAGCACGCA (sugars e5 d10 e5, linkages s1 o4 s10 o2 s2) | – | – | – | – | target mRNA inhibition (SOD1; A431, 0.062 µM): 12%; target mRNA inhibition (SOD1; A431, 0.185 µM): 13%; target mRNA inhibition (SOD1; A431, 0.556 µM): 14%; target mRNA inhibition (SOD1; A431, 1.667 µM): 4%; target mRNA inhibition (SOD1; A431, 5 µM): 18%; target mRNA inhibition (SOD1; A431, 15 µM): 7%; target mRNA inhibition (SOD1; SH-SY5Y, 0.062 µM): 16%; target mRNA inhibition (SOD1; SH-SY5Y, 0.185 µM): 5%; target mRNA inhibition (SOD1; SH-SY5Y, 0.556 µM): 19%; target mRNA inhibition (SOD1; SH-SY5Y, 1.667 µM): 36%; target mRNA inhibition (SOD1; SH-SY5Y, 5 µM): 68%; target mRNA inhibition (SOD1; SH-SY5Y, 15 µM): 80%
AAGTCATCTGCTTTTTC (sugars e3 k2 d7 k2 e3, PS) | – | – | – | – | target mRNA inhibition (SOD1; HepG2, 3 µM): 83%
AGCCTCATAATAAGTGC (sugars e2 k2 d9 k2 e2, PS) | – | – | – | – | target mRNA inhibition (SOD1; HepG2, 5 µM): 11%
TTTTATTCACAGGCTTG (sugars e2 k2 d9 k2 e2, PS) | – | – | – | – | target mRNA inhibition (SOD1; HepG2, 5 µM): 48%

Sequence | target mRNA inhibition (APOL1; A431, 0.0625 µM) | target mRNA inhibition (APOL1; A431, 0.25 µM) | target mRNA inhibition (APOL1; A431, 1 µM) | target mRNA inhibition (APOL1; A431, 2 µM) | other results
TTTTGTAAGTGCAACC (sugars k4 d9 k3, PS) | 47% | 84% | 95% | – | –
TGTAAGTGCAACCAAT (sugars kdddddkekekddddd, PS) | – | – | – | 81% | –
CAGCTATGGAAATGCC (sugars k4 d9 k3, PS) | 34% | 58% | 79% | – | –
CTTTATACCAGTGTCT (sugars k3 d10 k3, PS) | 30% | 65% | 88% | – | –
CTGTGATGTGGGACTT (sugars k4 d9 k3, PS) | 50% | 76% | 89% | – | –
GAAGATTGGCTCTGGC (sugars kkddddkekekkdddd, PS) | – | – | – | 10% | –
TGTTATATTTGATCCT (sugars kkdddddkekeddddd, PS) | 59% | 81% | 92% | 92% | target mRNA inhibition (APOL1; A431, 0.0156 µM): 33%; target mRNA inhibition (APOL1; A431, 0.04 µM): 50%
TTATTCTCATGGTACA (sugars kkddddkekekddddd, PS) | – | – | – | 47% | –
TTCAGAATTTCCACTA (sugars kkddddkekekkdddd, PS) | – | – | – | 58% | –
GTGAGTATTGTTTTTG (sugars kkddddekekeddddd, PS) | – | – | – | 93% | –
ACACATCATTGGGTTA (sugars kekddddeekkddddd, PS) | – | – | – | 87% | –
GTAAGTATTGCCAGCT (sugars kkkddddkekekdddd, PS) | – | – | – | 73% | –
CAGATGTGTTTAGGCA (sugars k4 d9 k3, PS) | 78% | 93% | 96% | – | –
TCAGATGGGTACTTCT (sugars k4 d9 k3, PS) | 38% | 66% | 83% | – | –
GTTATATTTGATCCTC (sugars kdddddkekekddddd, PS) | 56% | 78% | 92% | 95% | target mRNA inhibition (APOL1; A431, 0.0156 µM): 26%
ATTCTATTAGAGGGCT (sugars kkddddekekeddddd, PS) | – | – | – | 25% | –
AGTTTTGTAAGTGCAA (sugars k3 d4 k3 e1 d5, PS) | 60% | 87% | 94% | 96% | target mRNA inhibition (APOL1; A431, 0.0156 µM): 15%
GAAGCTTTAAACTCAG (sugars kkddddkekekddddd, PS) | – | – | – | 84% | –
CATTCAGAATTTCCAC (sugars kekddddeekkddddd, PS) | – | – | – | 89% | –
TTTGTAAGTGCAACCA (sugars kkddddkdkdkddddd, PS) | – | – | – | 99% | –
ACCCTCTTTATCCCCC (sugars k4 d9 k3, PS) | 53% and 39% | 82% and 65% | 92% and 81% | – | –

Sequence | target mRNA inhibition (APOL1; A431, 0.0625 µM) | target mRNA inhibition (APOL1; A431, 0.25 µM) | target mRNA inhibition (APOL1; A431, 1 µM) | target mRNA inhibition (APOL1; A431, 2 µM) | other results
GTTATGAAATTATTGG (sugars kkddddkekekddddd, PS) | – | – | – | 83% | –
TGTTATATTTGATCCT (sugars k2 d4 e3 k2 d5, PS) | – | – | – | 87% | –
CTGAAGATTGGCTCTG (sugars kkddddkekekddddd, PS) | – | – | – | 45% | –
TACTTCTGTTAGATAC (sugars k4 d9 k3, PS) | 47% | 76% | 92% | – | –
ATTCAGAATTTCCACT (sugars k3 d4 k3 e1 d5, PS) | – | – | – | 89% | –
ATTCTCATGGTACAGG (sugars kkkddddkekeddddd, PS) | 41% | 73% | 83% | 94% | target mRNA inhibition (APOL1; A431, 0.0156 µM): 15%
TTCTCATGGTACAGGA (sugars kkddddekekeddddd, PS) | – | – | – | 79% | –
AAGCTTTAAACTCAGG (sugars kkddddekekeddddd, PS) | 58% | 84% | 92% | 95% | target mRNA inhibition (APOL1; A431, 0.0156 µM): 20%
TCTATTAGAGGGCTAG (sugars k3 d4 k3 e1 d5, PS) | – | – | – | 51% | –
GTCTAAAGTAAACTGC (sugars k4 d9 k3, PS) | – | 65% and 83% | 81% and 89% | – | –
TTCTATTAGAGGGCTA (sugars kdddddkekekddddd, PS) | – | – | – | 45% | –
AATTCTATTAGAGGGC (sugars kkddddkekekddddd, PS) | – | – | – | 56% | –
GGTTGTCCAGAGCTTT (sugars k4 d9 k3, PS) | 100% | 84% | 91% | – | –
TTTGTAAGTGCAACCA (sugars kkkddddkdkdkdddd, PS) | – | – | – | 71% | –
GGAATTATGGAATTGC (sugars kkkddddkdkdkdddd, PS) | – | – | – | 76% | –
TTGATGAGTAGGTGAG (sugars k4 d9 k3, PS) | 72% | 81% | 85% | – | –
GCTATGGAAATGCCAA (sugars k4 d9 k3, PS) | 28% | 61% | 81% | – | –
AAGTATTGCCAGCTAA (sugars kekddddeekkddddd, PS) | – | – | – | 88% | –
TTCAGAATTTCCACTA (sugars k4 d9 k3, PS) | 40% | 67% | 87% | – | –
CATTCAGAATTTCCAC (sugars k3 d4 k3 e1 d5, PS) | 25% | 64% | 82% | 92% | target mRNA inhibition (APOL1; A431, 0.0156 µM): 5%
CGCAATGCTGACTTGG (sugars kkdddddkekeddddd, PS) | 44% | 80% | 93% | 96% | target mRNA inhibition (APOL1; A431, 0.0156 µM): 11%
